Test results from ChEMBL document CHEMBL3046043, “Antihyperglycaemic activity of Sinularia firma and Sinularia erecta in streptozotocin-induced diabetic rats” (Med Chem Res, 2008).

Assays:
[1] = species: Homo sapiens; test: Inhibition of glycogen phosphorylase (unknown origin) assessed as inorganic phosphate production at 100 uM after 30 min
[2] = target: T1, Glucose-6-phosphatase catalytic subunit 1 (Homo sapiens) (UniProt P35575); test: Inhibition of glucose-6-phosphatase (unknown origin) using glucose-6-phosphate as substrate assessed as inorganic phosphate production at 100 uM after 30 min
T1 sequence (whole entry): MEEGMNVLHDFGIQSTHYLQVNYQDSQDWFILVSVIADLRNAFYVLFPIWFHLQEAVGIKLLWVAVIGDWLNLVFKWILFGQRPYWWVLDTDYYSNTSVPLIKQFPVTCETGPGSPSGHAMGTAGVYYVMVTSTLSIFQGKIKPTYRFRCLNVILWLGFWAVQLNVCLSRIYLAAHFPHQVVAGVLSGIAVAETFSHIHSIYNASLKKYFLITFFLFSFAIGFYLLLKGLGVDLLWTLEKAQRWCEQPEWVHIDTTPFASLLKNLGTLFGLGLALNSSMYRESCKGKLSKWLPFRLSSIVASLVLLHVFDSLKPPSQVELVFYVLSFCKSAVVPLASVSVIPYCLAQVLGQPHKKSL

[3] = target: T2, Tyrosine-protein phosphatase non-receptor type 1 (Homo sapiens) (UniProt P18031); test: Inhibition of PTP1B (unknown origin) using p-nitrophenyl phosphate as substrate assessed as p-nitrophenolate ions production at 100 uM after 10 min
T2 sequence (whole entry): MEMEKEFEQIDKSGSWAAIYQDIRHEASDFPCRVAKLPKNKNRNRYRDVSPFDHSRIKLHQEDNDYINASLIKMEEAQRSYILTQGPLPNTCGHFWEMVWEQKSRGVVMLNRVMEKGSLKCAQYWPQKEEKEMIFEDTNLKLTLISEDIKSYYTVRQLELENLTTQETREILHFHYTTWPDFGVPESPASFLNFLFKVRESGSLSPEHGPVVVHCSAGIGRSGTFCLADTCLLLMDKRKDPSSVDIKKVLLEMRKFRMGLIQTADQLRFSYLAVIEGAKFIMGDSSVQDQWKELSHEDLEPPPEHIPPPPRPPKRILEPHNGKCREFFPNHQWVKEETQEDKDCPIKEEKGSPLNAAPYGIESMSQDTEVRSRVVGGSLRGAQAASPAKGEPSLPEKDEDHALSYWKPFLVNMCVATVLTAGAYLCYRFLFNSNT

SMILES: CCCCCCCCCCCCCCCCCCCCCCO[C@H]1OC[C@H](O[C@H]2OC[C@H](O[C@H]3OC[C@H](O)[C@H](O)[C@H]3O)[C@H](OC(C)=O)[C@H]2O)[C@H](O)[C@H]1O
- inhibition [1]: 8.9%
- inhibition [2]: 8.6%
- inhibition [3]: 5.9%

SMILES: CCCCCCCCCCCCCCCCCCC(=O)OCCCCCCCCCCCCCCCCC
- inhibition [1]: 17.2%
- inhibition [2]: 8.56%
- inhibition [3]: 11.1%

SMILES: CCCCCCCCCCCCCCCCCOC(=O)CCCCCCCCCCCCCCCC
- inhibition [1]: 18.9%
- inhibition [2]: 12.7%
- inhibition [3]: 1.3%

SMILES: CCCCCCCCCCCCCCCCO[C@H]1OC[C@H](O[C@H]2OC[C@H](O[C@H]3OC[C@H](O)[C@H](O)[C@H]3O)[C@H](O)[C@H]2O)[C@H](O)[C@H]1O
- inhibition [1]: 10.2%
- inhibition [2]: 12%
- inhibition [3]: 0.2%

SMILES: C=C(CCCC(C)C)[C@H]1CCC2C3CC=C4C[C@@H](O)CC[C@]4(C)C3CC[C@@]21C (some centres undefined)
- inhibition [1]: 10.2%
- inhibition [2]: 15.9%
- inhibition [3]: 7.6%

SMILES: CCCCCCCCCCC/C=C/C[C@@H](O)[C@H](CO)NC(=O)[C@H](O)CCCCCCCCCCCCCCCCCC
- inhibition [1]: 9.5%
- inhibition [2]: 10.2%
- inhibition [3]: 1.3%

SMILES: CCCCC/C=C/CC/C=C/[C@@H](O)[C@H](CO)NC(=O)CCCCCCCCCCCCCCC
- inhibition [1]: 11.3%
- inhibition [2]: 14.6%
- inhibition [3]: 4.1%

SMILES: CCCCCCCCCCCCCCCCCCOCC(O)CO (centres undefined)
- inhibition [1]: 14.2%
- inhibition [2]: 4.25%
- inhibition [3]: 4.1%
